According to the supplement of paper PMC6335503:
± gives the standard deviation of the averaged measurements.

Key:
Assay in all cases: cell viability, percent of DMSO control (CellTiter-Glo); higher = more viable cells
Conditions in all cases: 72 h
[1] = system: DFTD cell line T3 (06/0368)
Experimental: (§1)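 Eight-point dose titration of 41 screen hits in triplicate wells on four Tasmanian devil DFTD tumour cell lines (T1-T4) and devil fibroblasts, 384-well plates. Viability was read by CellTiter-Glo (ATP) after 72 h at 37 °C. Percent of control per plate: DMSO wells = 100%, positive-control wells = 0%.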

[2] = system: DFTD cell line T1 (06/2887)
Experimental: as §1

[3] = system: DFTD cell line T4 (07/0192)
Experimental: as §1

[4] = system: DFTD cell line T2 (05/2569)
Experimental: as §1

COc1cc2c(cc1-c1c(C)noc1C)ncc1[nH]c(=O)n([C@H](C)c3ccccn3)c12 [I-BET151]
cell viability [%]
Conditions | 0.0309 µM | 0.0926 µM | 0.277778 µM | 0.833333 µM | 2.5 µM | 7.5 µM | 22.5 µM | 67.5 µM
[1] | 102 ± 16 | 106 ± 14 | 117 ± 38 | 64.5 ± 7.8 | 47.6 ± 12 | 35.1 ± 16 | 36.6 ± 12 | 45.2 ± 18
[2] | 119 ± 13 | 126 ± 40 | 92.8 ± 26 | 31.3 ± 3.5 | 28.6 ± 10 | 16.7 ± 4.4 | 23 ± 2.7 | 37.9 ± 18
[3] | 87.7 ± 28 | 107 ± 30 | 87.5 ± 21 | 47.8 ± 2.6 | 49.6 ± 3.5 | 38.9 ± 4.8 | 42.9 ± 4.3 | 53 ± 11
[4] | 95.3 ± 11 | 120 ± 21 | 141 ± 48 | 81.4 ± 24 | 50.3 ± 17 | 21.1 ± 11 | 22.3 ± 12 | 32.5 ± 18

Cc1cc(Nc2ncnc3ccc(NC4=NC(C)(C)CO4)cc23)ccc1Oc1ccn2ncnc2c1 [Irbinitinib(ARRY-380; ONT-380)]
cell viability [%]
Conditions | 0.00617 µM | 0.0185 µM | 0.0556 µM | 0.166667 µM | 0.5 µM | 1.5 µM | 4.5 µM | 13.5 µM
[1] | 112 ± 5.4 | 116 ± 13 | 111 ± 14 | 98.9 ± 19 | 67.1 ± 12 | 54.9 ± 8.6 | 45.3 ± 7.3 | 48.6 ± 9.9
[2] | 113 ± 14 | 111 ± 4.5 | 94.9 ± 27 | 89.7 ± 20 | 41.5 ± 14 | 30.3 ± 8.6 | 33 ± 14 | 33.4 ± 1.7
[3] | 106 ± 7.2 | 109 ± 16 | 105 ± 17 | 92.6 ± 7.2 | 60.1 ± 7 | 46.2 ± 3.3 | 43.5 ± 9.6 | 36.6 ± 9.5
[4] | 102 ± 24 | 90.6 ± 12 | 98.1 ± 10 | 95.7 ± 9.6 | 65.7 ± 19 | 45.7 ± 14 | 50.6 ± 22 | 42.5 ± 2.8

CS(=O)(=O)CCNCc1ccc(-c2ccc3ncnc(Nc4ccc(OCc5cccc(F)c5)c(Cl)c4)c3c2)o1.Cc1ccc(S(=O)(=O)O)cc1.Cc1ccc(S(=O)(=O)O)cc1.O [Lapatinib ditosylate monohydrate]
cell viability [%]
Conditions | 0.00617 µM | 0.0185 µM | 0.0556 µM | 0.166667 µM | 0.5 µM | 1.5 µM | 4.5 µM | 13.5 µM
[1] | 104 ± 10 | 94.6 ± 39 | 92.3 ± 27 | 85.4 ± 8.8 | 69.8 ± 7.8 | 38.4 ± 1.4 | 48.1 ± 12 | 34 ± 7
[2] | 107 ± 39 | 96.9 ± 20 | 92.2 ± 12 | 59.3 ± 6.9 | 38.8 ± 14 | 27.7 ± 9.2 | 31.9 ± 9.8 | 17.9 ± 3.7
[3] | 98.9 ± 6.5 | 94 ± 37 | 94.6 ± 12 | 68.7 ± 6.8 | 60.1 ± 8.2 | 29.7 ± 3.2 | 38.5 ± 8.5 | 24.5 ± 5.5
[4] | 100 ± 26 | 88.5 ± 31 | 87.2 ± 27 | 74.9 ± 4.3 | 58.2 ± 13 | 41.5 ± 5 | 40.8 ± 9.6 | 24.9 ± 5.9

CS(=O)(=O)CCNCc1ccc(-c2ccc3ncnc(Nc4ccc(OCc5cccc(F)c5)c(Cl)c4)c3c2)o1 [Lapatinib]
cell viability [%]
Conditions | 0.0123 µM | 0.037 µM | 0.111111111 µM | 0.333333 µM | 1 µM | 3 µM | 9 µM | 27 µM
[1] | 80.9 ± 14 | 110 ± 29 | 84.9 ± 6.1 | 70.4 ± 15 | 42.1 ± 4.5 | 44.9 ± 16 | 31.7 ± 6.5 | 5.72 ± 6.8
[2] | 87.5 ± 17 | 112 ± 21 | 87.1 ± 1.2 | 42.6 ± 14 | 30.1 ± 5.2 | 28.2 ± 2.1 | 21.2 ± 1.1 | 12.5 ± 5.8
[3] | 81.5 ± 25 | 113 ± 8 | 84.5 ± 7.8 | 53 ± 10 | 32 ± 3.1 | 29.4 ± 3.1 | 20.7 ± 5.6 | 16.9 ± 3.8
[4] | 78.4 ± 19 | 133 ± 22 | 100 ± 7.6 | 68.6 ± 23 | 40.4 ± 10 | 44.6 ± 15 | 21.6 ± 5.3 | 8.25 ± 6.6

C=CC(=O)Nc1cc(Nc2ncc(Cl)c(-c3c[nH]c4ccccc34)n2)c(OC)cc1N(C)CCN(C)C [Mutant EGFR inhibitor]
cell viability [%]
Conditions | 0.00617 µM | 0.0185 µM | 0.0556 µM | 0.166667 µM | 0.5 µM | 1.5 µM | 4.5 µM | 13.5 µM
[1] | 87 ± 18 | 93 ± 18 | 86.5 ± 38 | 39.6 ± 1.6 | 38.2 ± 4.8 | 22 ± 11 | 12.8 ± 3.7 | 26.6 ± 4.2
[2] | 94.7 ± 15 | 83.8 ± 16 | 62.6 ± 41 | 29.1 ± 1.2 | 26.6 ± 1.8 | 9.39 ± 10 | 1.63 ± 5.5 | 7.99 ± 6.1
[3] | 75.6 ± 22 | 86.8 ± 26 | 89 ± 42 | 35.9 ± 5.8 | 20.9 ± 7 | 6.23 ± 8.1 | 3.77 ± 2.2 | 19.9 ± 7.9
[4] | 98.2 ± 20 | 93.9 ± 23 | 94.8 ± 32 | 50.8 ± 10 | 37.3 ± 3.5 | 16.6 ± 10 | 5.63 ± 3.1 | 11.5 ± 1.4

CCOc1cc2ncc(C#N)c(Nc3ccc(OCc4ccccn4)c(Cl)c3)c2cc1NC(=O)/C=C/CN(C)C [Neratinib(HKI-272)]
cell viability [%]
Conditions | 0.00617 µM | 0.0185 µM | 0.0556 µM | 0.166667 µM | 0.5 µM | 1.5 µM | 4.5 µM | 13.5 µM
[1] | 92 ± 15 | 102 ± 7.7 | 119 ± 39 | 96.1 ± 19 | 92.2 ± 2.9 | 39.8 ± 9.7 | 42.4 ± 10 | 36.5 ± 2.4
[2] | 97.8 ± 37 | 92.2 ± 15 | 125 ± 37 | 90.5 ± 7.4 | 50.7 ± 4.2 | 29 ± 6.5 | 29.2 ± 19 | 32.5 ± 3.8
[3] | 99.8 ± 14 | 88.3 ± 15 | 114 ± 43 | 93.5 ± 4.8 | 62.4 ± 16 | 22.9 ± 15 | 25.4 ± 14 | 18.8 ± 7.4
[4] | 97 ± 27 | 98 ± 17 | 154 ± 70 | 119 ± 36 | 93.3 ± 38 | 45.2 ± 9.8 | 45.7 ± 18 | 39.1 ± 7.5

Cc1sc2c(c1C)C(c1ccc(Cl)cc1)=N[C@@H](CC(=O)Nc1ccc(O)cc1)c1nnc(C)n1-2 [OTX015]
cell viability [%]
Conditions | 0.0123 µM | 0.037 µM | 0.111111111 µM | 0.333333 µM | 1 µM | 3 µM | 9 µM | 27 µM
[1] | 104 ± 32 | 120 ± 14 | 84.2 ± 13 | 79.8 ± 16 | 57.3 ± 15 | 50.5 ± 11 | 46.8 ± 10 | 54.8 ± 21
[2] | 103 ± 4.3 | 100 ± 16 | 74.2 ± 19 | 59.1 ± 11 | 31.2 ± 9.6 | 36 ± 6.8 | 30.2 ± 7.3 | 36.9 ± 20
[3] | 93.3 ± 12 | 85.1 ± 7.2 | 69.9 ± 18 | 72.7 ± 10 | 51.1 ± 6.5 | 55.9 ± 14 | 47.1 ± 9.2 | 56.2 ± 21
[4] | 105 ± 52 | 128 ± 33 | 97.9 ± 28 | 104 ± 18 | 70.1 ± 17 | 44.1 ± 14 | 36.1 ± 10 | 45.3 ± 14

CCOc1cc2ncc(C#N)c(Nc3ccc(F)c(Cl)c3)c2cc1NC(=O)/C=C/CN(C)C [Pelitinib (EKB-569)]
cell viability [%]
Conditions | 0.00617 µM | 0.0185 µM | 0.0556 µM | 0.166667 µM | 0.5 µM | 1.5 µM | 4.5 µM | 13.5 µM
[1] | 81.3 ± 13 | 125 ± 19 | 103 ± 9.2 | 76.4 ± 17 | 58.9 ± 7.4 | 39.5 ± 7 | 33.4 ± 5.2 | 36.2 ± 5.1
[2] | 82.1 ± 19 | 115 ± 7.8 | 93.5 ± 12 | 76.8 ± 19 | 22 ± 2 | 30.3 ± 9 | 34.1 ± 9.4 | -2.36 ± 7.5
[3] | 83 ± 12 | 113 ± 5.8 | 97.4 ± 3.2 | 77.8 ± 16 | 53.1 ± 7.7 | 18.3 ± 4.2 | 19.6 ± 4.7 | 22.1 ± 4.4
[4] | 79.7 ± 17 | 121 ± 36 | 111 ± 14 | 98.2 ± 37 | 42.1 ± 13 | 42.4 ± 14 | 33.2 ± 10 | 8.16 ± 16
